Assays:
[1] = system: plasma cytokines, chemokines and soluble angiogenic factors; experiment: Plasma cytokine, chemokine and soluble factor titration on treatment (D-7, C1D1, C1D8); format: in vivo, human
Procedure: Frozen plasma and frozen tumor biopsy supernatants were subsequently thawed, centrifuged for 15 min at 1,000 g, then titrated using Bio-Plex Pro™ Human Chemokine Panel (40-Plex, ref. 171AK99MR2, Bio-rad), Angiogenesis Panel 1 (human) (ref. K151P3S-1, Meso Scale Discovery), Human PD-1 and PD-L1 antibody sets (ref. F214A-3 & F214C-3, Meso Scale Discovery) following manufacturer's instructions. Each sample was run twice with the average value of the doublet taken as the result. Acquisitions were done on Bio-Plex 200™ System and MESO™ QuickPlex SQ120 readers. Raw data from Meso Scale Discovery's kit were analyzed with MSD's Discovery Workbench 4.0.
Inventors took advantage of the one-week lead-in nintedanib monotherapy prior to the pembrolizumab introduction to analyze the respective effects of the two drugs. Sequential blood sampling was performed at baseline and on-treatment in order to identify selective phannacodynamic markers of Nintedanib and Pembrolizumab that occurred upon treatment in all patients and independently from the treatment efficacy. Plasma was obtained from blood draws collected at baseline (D-7), one week after the nintedanib monotherapy lead-in (C1D1) and one week after the addition of pembrolizumab (C1D8). […] CCL15 and CXCL10 were also decreasing in all patients upon Nintedanib monotherapy but this decrease was only significant for patients with DCB (FIG. 10A).

[2] = PEMBIB trial, mesothelioma expansion cohort: safety and tolerability (CTCAE Version 4.03); design: species or system human; conditions: in vivo
[3] = system: advanced mesothelioma; conditions: monotherapy; n=118; cited from earlier work
[4] = D-7 vs C1D1, one-week nintedanib monotherapy, patients with both DCB and No DCB
[5] = nintedanib monotherapy week, all patients, only significant for DCB
[6] = one week after initiation of pembrolizumab, DCB and No DCB
[7] = upon pembrolizumab addition (C1D1 to C1D8), only significant in No DCB

## COC(=O)c1ccc2c(c1)NC(=O)/C2=C(\Nc1ccc(N(C)C(=O)CN2CCN(C)CC2)cc1)c1ccccc1 [nintedanib]
[1]; [4]
  blood Angiopoietin-2 level: significantly decreased
  blood CCL21 level: significantly decreased
  blood CCL23 level: significantly decreased
[1]; first week of nintedanib, patients with DCB
  plasma CCL8 level: tended to decrease
[1]; first week of nintedanib, patients with No DCB
  plasma CCL8 level: significantly increased
[1]; [5]
  plasma CCL15 level: decreasing
  plasma CXCL10 level: decreasing
[2]
  tolerability of nintedanib 150 mg BID versus 200 mg BID: better tolerated

## pembrolizumab
[1]; C1D8, one week after addition of pembrolizumab to nintedanib, both DCB and No DCB
  circulating soluble PD-1 (sPD1) median level: above 10 ng/mL
[1]; after one week of combination with pembrolizumab, all patients
  plasma CCL19 level: increase
[1]; one week after addition of pembrolizumab, all patients
  circulating soluble PD-L1 (sPDL1) level: significantly increased
[1]; [6]
  CXCL9 serum level: significant rise
  CXCL10 serum level: significant rise
  CXCL11 serum level: significant rise
  CXCL13 serum level: significant rise
[1]; [7]
  plasma CCL3 level: increased
  plasma CCL8 level: increased
  plasma CCL17 level: increased
  plasma CCL23 level: increased
  plasma CXCL2 level: decreased
[3]
  objective response rate (ORR; BORR per RECIST1.1): 8%
